The source of these data is ChEMBL document CHEMBL3046407, “Toxicity of monoterpenes against larvae and adults of Colorado potato beetle, Leptinotarsa decemlineata Say (Coleoptera: Chrysomelidae)” (2007).

Assay [1] concerns Leptinotarsa decemlineata. In words: Insecticidal activity against third-instar larval stage of Leptinotarsa decemlineata infested potato leaves assessed as mortality at 10 mg after 12 hr relative to control. It counts as functional.
Assay [2] relates to Leptinotarsa decemlineata. It counts as functional, Instar larval stage.
Assay [3] deals with Leptinotarsa decemlineata. It counts as functional, Instar larval stage. This is another data set of the same source.
Assay [4] relates to Leptinotarsa decemlineata. Type of assay: functional, Instar larval stage. This is another data set of the same source.
Assay [5] deals with Leptinotarsa decemlineata. As to the kind of experiment: Insecticidal activity against second-instar larval stage of Leptinotarsa decemlineata infested potato leaves assessed as mortality at 20 mg after 12 hr relative to control. It counts as functional.
In assay [6] the test system is Leptinotarsa decemlineata. Type of assay: functional, Instar larval stage. The source holds these as a separate data set.
In assay [7] the test system is Leptinotarsa decemlineata. Type of assay: functional, Instar larval stage. The source holds these as a separate data set.
Assay [8] has as its system Leptinotarsa decemlineata. Type of assay: functional, Instar larval stage. This is another data set of the same source.
Assay [9] has as its system Leptinotarsa decemlineata. In words: Insecticidal activity against second-instar larval stage of Leptinotarsa decemlineata infested potato leaves assessed as mortality at 10 mg after 12 hr relative to control. Type of assay: functional.
Assay [10] relates to Leptinotarsa decemlineata. In words: Insecticidal activity against adult Leptinotarsa decemlineata infested potato leaves assessed as mortality at 20 mg after 96 hr relative to control. It counts as functional.
Assay [11] concerns Leptinotarsa decemlineata. As to the kind of experiment: Insecticidal activity against first-instar larval stage of Leptinotarsa decemlineata infested potato leaves assessed as mortality at 10 mg after 48 hr relative to control. Type of assay: functional.
Assay [12] concerns Leptinotarsa decemlineata. In words: Insecticidal activity against first-instar larval stage of Leptinotarsa decemlineata infested potato leaves assessed as mortality at 20 mg after 96 hr relative to control. Type of assay: functional.
Assay [13] has as its system Leptinotarsa decemlineata. As to the kind of experiment: Insecticidal activity against first-instar larval stage of Leptinotarsa decemlineata infested potato leaves assessed as mortality at 20 mg after 48 hr relative to control. It counts as functional.
Assay [14] concerns Leptinotarsa decemlineata. As to the kind of experiment: Insecticidal activity against first-instar larval stage of Leptinotarsa decemlineata infested potato leaves assessed as mortality at 20 mg after 24 hr relative to control. Type of assay: functional.
Assay [15] has as its system Leptinotarsa decemlineata. In words: Insecticidal activity against first-instar larval stage of Leptinotarsa decemlineata infested potato leaves assessed as mortality at 20 mg after 12 hr relative to control. It counts as functional.
Assay [16] concerns Leptinotarsa decemlineata. As to the kind of experiment: Insecticidal activity against first-instar larval stage of Leptinotarsa decemlineata infested potato leaves assessed as mortality at 10 mg after 96 hr relative to control. It counts as functional.
For assay [17], the system named is Leptinotarsa decemlineata. As to the kind of experiment: Insecticidal activity against first-instar larval stage of Leptinotarsa decemlineata infested potato leaves assessed as mortality at 10 mg after 24 hr relative to control. Type of assay: functional.
In assay [18] the test system is Leptinotarsa decemlineata. As to the kind of experiment: Insecticidal activity against adult Leptinotarsa decemlineata infested potato leaves assessed as mortality at 20 mg after 48 hr relative to control. Type of assay: functional.
For assay [19], the system named is Leptinotarsa decemlineata. In words: Insecticidal activity against adult Leptinotarsa decemlineata infested potato leaves assessed as mortality at 20 mg after 24 hr relative to control. Type of assay: functional.
In assay [20] the test system is Leptinotarsa decemlineata. As to the kind of experiment: Insecticidal activity against adult Leptinotarsa decemlineata infested potato leaves assessed as mortality at 20 mg after 12 hr relative to control. It counts as functional.
Assay [21] has as its system Leptinotarsa decemlineata. In words: Insecticidal activity against adult Leptinotarsa decemlineata infested potato leaves assessed as mortality at 10 mg after 96 hr relative to control. It counts as functional.
Assay [22] relates to Leptinotarsa decemlineata. In words: Insecticidal activity against adult Leptinotarsa decemlineata infested potato leaves assessed as mortality at 10 mg after 48 hr relative to control. Type of assay: functional.
Assay [23] has as its system Leptinotarsa decemlineata. As to the kind of experiment: Insecticidal activity against adult Leptinotarsa decemlineata infested potato leaves assessed as mortality at 10 mg after 24 hr relative to control. It counts as functional.
For assay [24], the system named is Leptinotarsa decemlineata. As to the kind of experiment: Insecticidal activity against adult Leptinotarsa decemlineata infested potato leaves assessed as mortality at 10 mg after 12 hr relative to control. It counts as functional.
Assay [25] concerns Leptinotarsa decemlineata. In words: Insecticidal activity against first-instar larval stage of Leptinotarsa decemlineata infested potato leaves assessed as mortality at 10 mg after 12 hr relative to control. It counts as functional.
Assay [26] has as its system Leptinotarsa decemlineata. It counts as functional, Instar larval stage. The source holds these as a separate data set.
The test system of assay [27] is Leptinotarsa decemlineata. It counts as functional, Instar larval stage. The source holds these as a separate data set.
In assay [28] the test system is Leptinotarsa decemlineata. As to the kind of experiment: Insecticidal activity against third-instar larval stage of Leptinotarsa decemlineata infested potato leaves assessed as mortality at 20 mg after 24 hr relative to control. Type of assay: functional.
For assay [29], the system named is Leptinotarsa decemlineata. In words: Insecticidal activity against third-instar larval stage of Leptinotarsa decemlineata infested potato leaves assessed as mortality at 20 mg after 12 hr relative to control. It counts as functional.
The test system of assay [30] is Leptinotarsa decemlineata. Type of assay: functional, Instar larval stage. This is another data set of the same source.
Assay [31] relates to Leptinotarsa decemlineata. Type of assay: functional, Instar larval stage. The source holds these as a separate data set.
Assay [32] concerns Leptinotarsa decemlineata. In words: Insecticidal activity against third-instar larval stage of Leptinotarsa decemlineata infested potato leaves assessed as mortality at 10 mg after 24 hr relative to control. Type of assay: functional.
The test system of a further assay is Sitophilus granarius. As to the kind of experiment: Insecticidal activity against Sitophilus granarius (granary weevil) assessed as mortality. Type of assay: functional.

With `CC1=CC[C@@H](C(C)(C)O)CC1` [ALPHA-TERPINEOL], the mortality in [1] was determined as 0%; in [2] it was 10%; in [3], 6.7%; in assay [4], 3.3%; in assay [5] it was 0%; in assay [6], 13.3%. The mortality in [7] turned out to be 6.7%; in [8], 6.7%; in assay [9], 0%; in assay [10], 23.3%; in assay [11] it was 13.7%; in assay [12], 30%. Moreover, the mortality is listed as 26.7% in assay [13]; 23.3% in assay [14]; 16.7% in [15]; 16.7% in [16]; 6.7% in assay [17]; 0% in [18]. Besides, the mortality in [19] stood at 0%; in assay [20] it was 0%; in assay [21], 16.7%; in assay [22] it was 6.7%; in assay [23] it was 0%; in assay [24], 0%. Further, the mortality in [25] is reported as 3.3%; in assay [26], 23.3%; in assay [27], 20%; in assay [28], 13.3%; in assay [29] it was 13.3%; in [30], 0%. Further, the mortality in [31] and in [32] was 0% each time.
As to `CC12CCC(C1)C(C)(C)C2=O` (stereo not given) [FENCHONE], the mortality in [1] is given as 56.7%; in assay [2] it was 100%; in assay [3], 100%; in assay [4], 100%; in [5] it was 33.3%; in assay [6], 73.3%. Besides, the mortality in [7] is on record as 63.3%; in assay [8] it was 50%; in assay [9], 23.3%; in assay [10] it was 100%; in [11], 63.3%; in assay [12], 100%. The mortality worked out at 100% in assay [13]; 83.3% in assay [14]; 36.7% in assay [15]; 83.3% in assay [16]; 46.7% in assay [17]; 100% in assay [18]. Moreover, the mortality in assay [19] is listed as 100%; in [20] it was 90%; in assay [21] it was 100%; in assay [22], 100%; in assay [23] it was 100%; in assay [24] it was 53.3%. The mortality is 13.3% in assay [25]; 100% in [26]; 100% in assay [27]; 100% in assay [28]; 66.7% in assay [29]; 100% in assay [30]. Moreover, the mortality in assay [31] was 100%; in [32], 93.3%.
With `CC(C)=C1CC[C@@H](C)CC1=O` [PULEGONE], in the assay on Sitophilus granarius, the mortality came out at 90%.
